Measurements taken from patent US20240024436A1, “METHOD FOR TREATING CANCER” (CHILDREN'S MEDICAL CENTER CORPORATION, priority 2022, published 2024).
“Also recorded” adds a separate entry of the source.

Columns and labels:
[1] = system: NADP/NADPH ratio in HCT-15 cells; test: NADP/NADPH ratio, NADP/NADPH Assay Kit (colorimetric, OD 450 nm); format: cell-based, human
Method: FIG. 8a, HCT-15 cells were transduced with the indicated shRNAs and with the indicated doses of asparaginase, and the ratio of NADP to NADPH was measured using the NADP/NADPH Assay Kit (abcam product #ab65349). Relative NADP/NADPH ratio was assessed by microplate reader based on colorimetric signals (OD 450 nm), with colorimetric signal normalized to those in shLuc cells with no-asparaginase controls. FIG. 8b, the colorectal cancer cell line HCT-15 was treated with vehicle, asparaginase (500 U/L), G6PDi-1 (30 μM) or combination treatment. […] was measured by NADP/NADPH Assay Kit (ab65349) in indicated cells. Relative NADP/NADPH ratio was assessed by microplate reader based on colorimetric signals (OD 450 nm), with colorimetric signal normalized to those in shLuc cells with no-asparaginase controls.

[2] = system: NADP/NADPH ratio in HCT-15 G6PD knock-out cells; test: NADP/NADPH ratio by liquid chromatography/mass spectrometry in G6PD knock-out clones; format: cell-based, human; details: HCT-15 G6PD knock-out clones #1 and #2, asparaginase 500 U/L
Method: HCT-15 cells that were either G6PD wild-type (WT) parental cells, or G6PD knock-out clones #1 and #2, were treated by vehicle or asparaginase (500 U/L). NADP/NADPH ratio was measured by liquid chromatography/mass spectrometry, and levels are shown normalized to those in HCT-15 cells with no-asparaginase controls.

[3] = system: ROS levels in HCT-15 cells; test: Reactive oxygen species levels, Cellular ROS Assay Kit; format: cell-based, human; details: G6PD deficient (shG6PD #1 and #2) HCT-15 cells, indicated doses
Method: HCT-15 cells were transduced with negative control shRNA (shLuciferase, shLuc) or with two distinct G6PD-targeting shRNAs (shG6PD #1 and #2), treated with asparaginase at the indicated doses, and reactive oxygen species (ROS) levels were assessed using the Cellular ROS Assay Kit (Abcam, product number ab113851) in shLuc (control). ROS levels were measured by fluorescence microplate reader, and were normalized to those in shLuc-transduced, no-asparaginase controls. […] Results are shown as means±SEM; n=3. ****P<0.0001.

[4] = system: HCT-15 colorectal cancer cells; test: Relative viability of HCT-15 cells with CRISPR interference of RPIA and RPE, treated with asparaginase; format: cell-based, human; details: HCT-15 with dCas9-KRAB and guide RNAs targeting RPIA and RPE promoters
Method: HCT-15 colorectal cancer cells were transduced with a so-called CRISPR interference system, consisting of a dCas9-KRAB expression construct and guide RNAs targeting the promoters of RPIA and RPE, to inhibit expression of these enzymes. Cells were then treated with vehicle or asparaginase at the indicated doses. Relative viability was assessed by counting viable cells based on trypan blue vital dye staining, with cell counts normalized to those in cells with no-asparaginase controls.

[5] = system: HCT-15 colorectal cancer cell line; test: Relative viability of G6PD knock-out HCT-15 clones treated with asparaginase; format: cell-based, human; details: G6PD knock-out (KO) clones of HCT-15 versus wild-type
Method: FIG. 5a, Western blot analysis of G6PD protein expression levels in parental HCT-15 cells (G6PD wild-type) and two distinct G6PD knock-out (KO) clones generated by CRISPR-Cas9 induced gene deletion. FIG. 5b, control (G6PD wild-type) or G6PD knockout (KO) clones of the HCT-15 colorectal cancer cell line were treated with asparaginase at the indicated doses, and relative cell viability was assessed by counting the number of live cells based on trypan blue vital dye staining, with cell counts normalized to those in cells with no-asparaginase controls.

[6] = system: mouse intestinal organoid models of colorectal cancer; test: Subcutaneous AKP organoid tumors in immunodeficient mice, tumor volume; format: in vivo; details: G6pdx-deficient (shG6pdx) organoid tumors, asparaginase 1,000 U/kg
From the text: Left panel, Mouse intestinal organoids with Apc deficiency, Kras activating mutations, and Tp53 loss (so-called AKP organoids) were transduced with two distinct control shRNAs (shGFP and shLuciferase), or two distinct shRNAs targeting G6pdx (the mouse G6PD gene). Knockdown of G6pdx protein expression was confirmed by Western blot analysis.
Organoids were transduced with control (shLuc) and two distinct shG6pdx-targeting shRNAs (see FIG. 10), and injected subcutaneously into immunodeficient mice. After engraftment of tumors (defined as tumors reaching a volume of 150 mm3), mice were treated with vehicle (phosphate-buffered saline, PBS) or asparaginase (1,000 U/kg), and tumor volumes were followed. Asparaginase or PBS were re-dosed at the time points indicated by the black arrows.

G6PD = biological target: T1, G6PD (Homo sapiens, UniProt P11413); test: G6PD activity assay in colorectal cell lines treated with G6PDi; format: cell-based; details: HCT-15 and HT-29 treated with G6PDi at the indicated concentrations
T1 construct: endogenous in cells; host or cells: HCT-15 and HT-29 colorectal cancer cell lines
Method: (§1) FIG. 3a colorectal cell lines, HCT-15 and HT-29 were treated with small molecule inhibitor G6PDi at the indicated concentrations and activity of G6PD was assessed. FIGS. 3b-3c Colorectal cancer cell lines, HCT-15 (FIG. 3b) and […] (FIG. 3c) were treated with vehicle or G6PDi-1 (30 μM) and with the indicated doses of asparaginase. Relative viability was assessed by counting viable cells based on trypan blue vital dye staining, with cell counts normalized to those in cells with no-asparaginase controls.

[7] = system: colorectal cancer cell lines HCT-15 and HT-29; test: Relative viability (trypan blue viable cell counts) with G6PDi-1 plus asparaginase; format: cell-based, human; details: G6PDi-1 30 μM with indicated doses of asparaginase
Method: as §1

[8] = system: Apc-deficient organoids with mutations of Tp53 and Kras; test: Organoid viability (counting viable organoids); format: cell-based, mouse; details: 500 U/L asparaginase + 100 μM G6PDi-1, basal medium
Method: FIG. 4a Apc-deficient organoids with mutations of Tp53 and Kras were cultured in basal medium and treated with vehicle, asparaginase (500 U/L), G6PDi-1 (100 μM), or combo (500 U/L asparaginase+100 μM G6PDi-1). FIG. 4b Viability of organoids from FIG. 4a was assessed by counting viable organoids. Data is relative to vehicle treatment group.

T1 sequence (P11413 whole entry): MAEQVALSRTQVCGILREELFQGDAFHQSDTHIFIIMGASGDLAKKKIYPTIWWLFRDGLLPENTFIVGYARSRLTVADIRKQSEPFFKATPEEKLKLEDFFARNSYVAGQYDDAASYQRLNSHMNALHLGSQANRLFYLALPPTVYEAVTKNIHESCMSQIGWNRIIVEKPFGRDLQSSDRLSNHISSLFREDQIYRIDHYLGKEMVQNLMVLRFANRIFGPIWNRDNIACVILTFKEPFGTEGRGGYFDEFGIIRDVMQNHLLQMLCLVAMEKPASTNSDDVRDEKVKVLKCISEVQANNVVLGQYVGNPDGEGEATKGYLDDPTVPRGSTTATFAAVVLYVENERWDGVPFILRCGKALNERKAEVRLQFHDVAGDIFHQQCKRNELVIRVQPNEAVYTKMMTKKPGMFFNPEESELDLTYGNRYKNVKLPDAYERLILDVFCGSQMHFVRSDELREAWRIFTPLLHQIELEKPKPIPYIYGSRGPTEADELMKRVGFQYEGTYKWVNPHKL

G6PD activity (G6PD)	Substance	relative NADP/NADPH ratio on asparaginase treatment ([1]; HCT-15 cells depleted of G6PD (shRNA or G6PDi-1 30 μM), asparaginase 500 U/L or indicated doses)	NADP/NADPH ratio on asparaginase treatment (LC/MS) [2]	reactive oxygen species levels on asparaginase treatment [3]	relative viability on asparaginase treatment [4]	asparaginase sensitivity (relative cell viability) [5]	tumor volume / therapeutic activity [6]	sensitivity to asparaginase (relative viability) [7]	asparaginase sensitivity in organoids (viable organoids relative to vehicle) [8]	relative NADP/NADPH ratio on G6PD inhibition ([1]; HCT-15 cells, G6PDi-1 30 μM)
	asparaginase	further increased the NADP/NADPH ratio; also recorded: further increase of NADP/NADPH ratio	further increase of NADP/NADPH ratio	not further elevated	None of the differences were statistically significant	induces asparaginase sensitivity	tumor volumes were reduced; also recorded: significant therapeutic activity			
reduce G6PD activity	G6PDi-1							induce sensitivity to asparaginase	induce asparaginase sensitivity	increased
